From US20260234112A1, “COMPOUNDS, COMPOSITIONS, AND METHODS OF USE THEREOF” (Type6 Therapeutics, Inc., priority 2023, published 2026)
pKd: −log10 of the molar value.

Target: T1, Cdk2(2-298) (Homo sapiens, UniProt P24941)
T1 construct: Biotinylated N-terminal avi-tagged Cdk2(2-298) or Cdk1(1-297) was immobilized
Assay: Surface Plasmon Resonance (SPR) compound interaction, Biacore 8K
Format: binding
Details: single-cycle kinetics (SCK, "S"), dissociation 1800 sec, read-out: Activity rating (KD)
Experimental: Compound interaction was profiled using a Biacore 8K instrument (Cytiva). Biotinylated N-terminal avi-tagged Cdk2(2-298) or Cdk1(1-297) was immobilized on a series S sensor Chip SA at a capture level between 2500 RU and 3000 RU (Cdk2) or 7000 RU (Cdk1) in buffer (25 mM HEPES, 150 mM NaCl, 0.05% Tween20, pH 7.5). A compound dilution plate (8 concentrations, 3-fold dilution) in DMSO was prepared (100× assay concentration). From this plate, compound DMSO stock solution was transferred into buffer, yielding a final DMSO concentration of 1% in assay. The remaining buffer was supplemented with 1% DMSO. Compounds were injected in a series of increasing concentrations in multi-cycle kinetics (MCK, “M”) or single-cycle kinetics (SCK, “S”) mode at a flow rate of 30 μl/min for 120 sec and dissociation was profiled for 180 sec (MCK) or 1800 sec (SCK). Data were analysed using Biacore Insight Evaluation Software (Cytiva).

Row | Compound | pKd
1 | C=Cc1ccccc1S(=O)(=O)Nc1ccc(Oc2ccncc2-c2ccnc(N[C@H]3CC[C@H](N)CC3)n2)c(F)c1 [Compound 33, N-[4-[[3-[2-(1r,4r)[(4-Aminocyclohexyl)amino]pyrimidin-4-yl]-4-pyridyl]oxy]-3-fluoro-phenyl]-2-ethenylbenzenesulfonamide] | ≥ 8.00
2 | O=S(=O)(Nc1ccc(Oc2ccncc2-c2ccnc(N[C@H]3CCCNC3)n2)c(F)c1)c1ccccc1Cl [Compound 34, N-[3-Fluoro-4-[[3-[2-[[(3S)-3-piperidyl]amino]pyrimidin-4-yl]-4-pyridyl]oxy]phenyl] 2-chlorobenzenesulfonamide] | ≥ 8.00
3 | Cc1ccc(C#N)cc1S(=O)(=O)Nc1ccc(Oc2ccncc2-c2ccnc(N[C@H]3CC[C@H](N)CC3)n2)c(F)c1 [Compound 35, N-(4-((3-(2-(((1r,4r)-4-aminocyclohexyl)amino)pyrimidin-4-yl)pyridin-4-yl)oxy)-3-fluorophenyl) 5-cyano-2-methylbenzenesulfonamide] | 7.00 to 7.96
4 | N[C@H]1CC[C@H](Nc2nccc(-c3cnccc3Oc3ccc(NS(=O)(=O)C4CC4)cc3F)n2)CC1 [Compound 36, N-[4-[[3-[2-[(1r,4r)(4-Aminocyclohexyl)amino]pyrimidin-4-yl]-4-pyridyl]oxy]-3-fluorophenyl] cyclopropanesulfonamide] | < 5.30
5 | N[C@H]1CC[C@H](Nc2nccc(-c3cnccc3Oc3ccc(NS(=O)(=O)c4ccccc4)cc3F)n2)CC1 [Compound 37, N-[4-[[3-[2-[(1r,4r)(4-Aminocyclohexyl)amino]pyrimidin-4-yl]-4-pyridyl]oxy]-3-fluorophenyl] benzenesulfonamide] | 7.00 to 7.96
6 | NC(=O)c1ccc(S(=O)(=O)Nc2ccc(Oc3ccncc3-c3ccnc(N[C@H]4CC[C@H](N)CC4)n3)c(F)c2)cc1 [Compound 38, 4-(N-(4-((3-(2-(((1r,4r)-4-aminocyclohexyl)amino)pyrimidin-4-yl)pyridin-4-yl)oxy)-3-fluorophenyl)sulfamoyl) benzamide] | 6.00 to 7.00
7 | N[C@H]1CC[C@H](Nc2nccc(-c3cnccc3Oc3ccc(NS(=O)(=O)C4CCC4)cc3F)n2)CC1 [Compound 39, N-[4-[[3-[2-[(1r,4r)(4-Aminocyclohexyl)amino]pyrimidin-4-yl]-4-pyridyl]oxy]-3-fluorophenyl]cyclobutanesulfonamide] | 5.30 to 6.00
8 | CS(=O)(=O)Nc1ccc(Oc2ccncc2-c2ccnc(N[C@H]3CC[C@H](N)CC3)n2)c(F)c1 [Compound 40, N-(4-((3-(2-(((1r,4r)-4-aminocyclohexyl)amino)pyrimidin-4-yl)pyridin-4-yl)oxy)-3-fluorophenyl) methanesulfonamide] | 5.30 to 6.00
9 | N[C@H]1CC[C@H](Nc2nccc(-c3cnccc3Oc3ccc(NS(=O)(=O)c4ccc5c(c4)OCO5)cc3F)n2)CC1 [Compound 41, N-[4-[[3-[2-[(1r,4r)(4-aminocyclohexyl)amino]pyrimidin-4-yl]-4-pyridyl]oxy]-3-fluorophenyl]1,3-benzodioxol-5-ylsulfonamide] | 6.00 to 7.00
10 | N[C@H]1CC[C@H](Nc2nccc(-c3cnccc3Oc3ccc(NS(=O)(=O)c4cccc5cccnc45)cc3F)n2)CC1 [Compound 42, N-[4-[[3-[2-[(1r,4r)(4-aminocyclohexyl)amino]pyrimidin-4-yl]-4-pyridyl]oxy]-3-fluorophenyl]quinoline-8-sulfonamide] | 6.00 to 7.00
11 | COc1ccc(S(=O)(=O)Nc2ccc(Oc3ccncc3-c3ccnc(N[C@H]4CC[C@H](N)CC4)n3)c(F)c2)c(C)c1C [Compound 43, N-[4-[[3-[2-[(1r,4r)(4-aminocyclohexyl)amino]pyrimidin-4-yl]-4-pyridyl]oxy]-3-fluorophenyl] 4-methoxy-2,3-dimethyl-benzenesulfonamide] | 7.00 to 7.96
12 | N[C@H]1CC[C@H](Nc2nccc(-c3cnccc3Oc3ccc(NS(=O)(=O)Cc4ccccc4)cc3F)n2)CC1 [Compound 44, N-[4-[[3-[2-[(1r,4r)(4-Aminocyclohexyl)amino]pyrimidin-4-yl]-4-pyridyl]oxy]-3-fluorophenyl] phenylmethanesulfonamide] | 5.30 to 6.00
13 | Cc1cc2cc(S(=O)(=O)Nc3ccc(Oc4ccncc4-c4ccnc(N[C@H]5CC[C@H](N)CC5)n4)c(F)c3)ccc2[nH]1 [Compound 45, N-[4-[[3-[2-[(1r,4r)(4-aminocyclohexyl)amino]pyrimidin-4-yl]-4-pyridyl]oxy]-3-fluorophenyl] 2-methyl-1H-indole-5-sulfonamide] | < 5.30
14 | N[C@H]1CC[C@H](Nc2nccc(-c3cnccc3Oc3ccc(NS(=O)(=O)c4ccccc4)c(F)c3)n2)CC1 [Compound 46, N-[4-[[3-[2-[(1r,4r)(4-Aminocyclohexyl)amino]pyrimidin-4-yl]-4-pyridyl]oxy]-2-fluorophenyl] benzenesulfonamide] | 6.00 to 7.00
15 | N[C@H]1CC[C@H](Nc2nccc(-c3cnccc3Oc3cc(Cl)c(NS(=O)(=O)c4ccccc4Cl)cc3F)n2)CC1 [Compound 47, N-[4-[[3-[2-[(1r,4r)(4-Aminocyclohexyl)amino]pyrimidin-4-yl]-4-pyridyl]oxy]-2-chloro-5-fluorophenyl] 2-chlorobenzenesulfonamide] | ≥ 8.00
16 | N[C@H]1CC[C@H](Nc2nccc(-c3cnccc3Oc3cc(Cl)c(NS(=O)(=O)c4ccccc4)cc3F)n2)CC1 [Compound 48, N-[4-[[3-[2-[(1r,4r)(4-Aminocyclohexyl)amino]pyrimidin-4-yl]-4-pyridyl]oxy]-2-chloro-5-fluorophenyl] benzenesulfonamide] | 7.00 to 7.96
17 | N[C@H]1CC[C@H](Nc2nccc(-c3cnccc3Oc3cc(Cl)c(NS(=O)(=O)Cc4ccccc4)cc3F)n2)CC1 [Compound 49, N-[4-[[3-[2-[(1r,4r)(4-Aminocyclohexyl)amino]pyrimidin-4-yl]-4-pyridyl]oxy]-2-chloro-5-fluorophenyl] phenylmethanesulfonamide] | 6.00 to 7.00
18 | N[C@H]1CC[C@H](Nc2nccc(-c3cnccc3Oc3ccc(NS(=O)(=O)C4CC4)c(Cl)c3)n2)CC1 [Compound 50, N-[4-[[3-[2-[(1r,4r)(4-Aminocyclohexyl)amino]pyrimidin-4-yl]-4-pyridyl]oxy]-2-chlorophenyl] cyclopropanesulfonamide] | < 5.30
19 | N[C@H]1CC[C@H](Nc2nccc(-c3cnccc3Oc3ccc(NS(=O)(=O)Cc4ccccc4)c(Cl)c3)n2)CC1 [Compound 51, N-[4-[[3-[2-[(1r,4r)(4-Aminocyclohexyl)amino]pyrimidin-4-yl]-4-pyridyl]oxy]-2-chlorophenyl] phenylmethanesulfonamide] | 5.30 to 6.00
20 | N[C@H]1CC[C@H](Nc2nccc(-c3cnccc3Oc3ccc(NS(=O)(=O)c4ccccc4)c(Cl)c3F)n2)CC1 [Compound 52, N-[4-[[3-[2-[(1r,4r)(4-Aminocyclohexyl)amino]pyrimidin-4-yl]-4-pyridyl]oxy]-2-chloro-3-fluorophenyl] benzenesulfonamide] | 7.00 to 7.96
21 | N[C@H]1CC[C@H](Nc2nccc(-c3cnccc3Oc3ccc(NS(=O)(=O)c4ccccc4Br)cc3F)n2)CC1 [Compound 53, N-[4-[[3-[2-[(1r,4r)(4-Aminocyclohexyl)amino]pyrimidin-4-yl]-4-pyridyl]oxy]-3-fluorophenyl] 2-bromobenzenesulfonamide] | ≥ 8.00
22 | Cc1ccccc1S(=O)(=O)Nc1ccc(Oc2ccncc2-c2ccnc(N[C@H]3CC[C@H](N)CC3)n2)c(F)c1 [Compound 54, N-[4-[[3-[2-[(1r,4r)(4-Aminocyclohexyl)amino]pyrimidin-4-yl]-4-pyridyl]oxy]-3-fluorophenyl] 2-methylbenzenesulfonamide] | 7.00 to 7.96
